Assay results as given in publication PMC11284789, “Biomimetic Analogues of the Desferrioxamine E Siderophore for PET Imaging of Invasive Aspergillosis: Targeting Properties and Species Specificity” (Journal of Medicinal Chemistry, 2024).
Where two headings read alike, the source gives them in different places.

Columns and labels:
[1] = design: method as in earlier work; settings: cited from earlier work; for logβ Ga(III)L: T = 25 °C, I = 0.1 M NaClO4, M:L 1:1; for pGa(III): calculated for [L] = 1 × 10−4 [M] = 1 × 10−5 at pH 7.4
[2] = system: iron-starved (Fe(−)) A. fumigatus cultures; experiment: Short-term in vitro uptake of 68Ga-labeled siderophores; assay type: cell-based, Aspergillus fumigatus; settings: paired t test, p < 0.01
Procedure: To investigate the short-term active transport of ^68Ga-labeled FOXE analogues by A. fumigatus, iron-starved (Fe(−)) cultures were used (Figure 3). As a control, the same cultures were incubated with Fe(III)-FOXE beforehand to saturate and therefore block Sit1-mediated activity. A decrease in uptake upon Fe(III)-FOXE blocking underlines specific uptake by the same transporters recognizing FOXE.
Figure 3 Uptake of ^68Ga-labeled FOXE analogues by Fe(III)-FOXE-blocked and -unblocked iron-starved (Fe(−)) A. fumigatus cultures after 45 min of incubation. * indicates significant difference of blocking compared with nonblocking (mean of three independent experiments, paired t test, p < 0.01).
Uptake assays were performed in both iron-deficient and iron-sufficient A. fumigatus cultures as described previously.[55] The uptake of each [^68Ga]Ga(III)-FOXE derivative was expressed as the ratio to [^68Ga]Ga(III)-FOXE uptake from the same experiment in order to normalize uptake variations between different fungal cultures. The mean values of three different assays were used to quantitatively compare the difference in uptake between the compounds.

[3] = cited from earlier work
[4] = system: A. fumigatus mutant strain ΔsidAΔftrA; experiment: Growth promotion assay (siderophore utilization), ΔsidAΔftrA; assay type: cell-based, Aspergillus fumigatus; settings: siderophores in ferri-form, 0.1, 1.0, 10 and 50 μM; 48 h at 37 °C
Procedure: (§1) In order to investigate whether A. fumigatus is able to utilize the artificial FOX analogues in the iron form as an iron source, growth promotion assays were performed (Figure 2) using two A. fumigatus mutants. The mutant strain ΔsidAΔftrA is able to grow only in the presence of utilizable siderophores or ferrous iron concentration >3 mM.[10],[44] The second mutant, ΔsidAΔftrAΔsit1, additionally lacks the siderophore transporter Sit1, which exclusively mediates the uptake of ferrioxamine-type siderophores and is additionally involved in the uptake of ferrichrome-type and coprogen-type siderophores but not of FsC or TAFC.[19],[20] For growth promotion analysis, the mutants were spotted on iron-lacking media supplemented with different concentrations of siderophores. Control experiments confirmed the expected growth pattern: growth of ΔsidAΔftrA but not of ΔsidAΔftrAΔsit1 was promoted by supplementation with ferric FOXE; both mutant strains were able to grow in the presence of TAFC as uptake of this siderophore depends on MirB but not on Sit1; both mutant strains lacked growth without siderophore supplementation, and uninoculated media also lacked fungal growth. […] The utilization of iron from all artificial ferrioxamine analogues was mediated by Sit1 like that of natural ferrioxamine-type siderophores.[20]
Figure 2 Growth promotion analysis of FOX analogues. 10^4 conidia of A. fumigatus mutant strains ΔsidAΔftrA (A) and ΔsidAΔftrAΔsit1 (B) were point-inoculated for every condition. All natural and artificial siderophores were tested in the ferri-form in the concentrations 0.1, 1.0, 10, and 50 μM. As controls, TAFC, which is taken up in a Sit1-independent manner, and FOXE were included. Moreover, controls without siderophore supplementation with (+) or without (−) inoculation of conidia were included. Greenish coloration of the fungal colonies indicates asexual sporulation. Pictures were taken after 48 h of incubation at 37 °C. […]

[5] = system: A. fumigatus mutant strain ΔsidAΔftrAΔsit1; experiment: Growth promotion assay (siderophore utilization), Sit1-lacking ΔsidAΔftrAΔsit1; assay type: cell-based, Aspergillus fumigatus; settings: siderophores in ferri-form, 0.1, 1.0, 10 and 50 μM; 48 h at 37 °C
Procedure: as §1
Figure 2 Growth promotion analysis of FOX analogues. […]

[6] = system: S. aureus cultures; design: method as in PMID 34783539; settings: 68Ga-labeled, iron-deficient cultures; cited from earlier work

| Molecule | logβ Ga(III)L [1] | pGa(III) [1] | difference between Fe(III)-FOXE-blocked and -unblocked uptake [2] | logβ Fe(III)L ([3]; T = 25 °C, I = 0.1 M NaClO4, M:L 1:1) | pFe(III) ([3]; calculated for [L] = 1 × 10−4 [M] = 1 × 10−5 at pH 7.4) | growth promotion of ΔsidAΔftrA [4] | growth of ΔsidAΔftrAΔsit1 (Sit1 dependence) [5] | uptake (radioactivity level) in S. aureus cultures [6] | logβ Fe(III)L ([3]; ref Reference2) |
| --- | --- | --- | --- | --- | --- | --- | --- | --- | --- |
| O=C1CCN(O)C(=O)CCNC(=O)CCN(O)C(=O)CCNC(=O)CCN(O)C(=O)CCN1 [FOX 2–2] | 26.44(5) | 21.4 | statistically insignificant | 25.92(8) | 21.5 | very limited growth promotion only at the highest tested concentration of 50 μM | – | – | – |
| O=C1CCC(=O)N(O)CCCCCNC(=O)CCC(=O)N(O)CCCCCNC(=O)CCC(=O)N(O)CCCCCN1 [FOXE, ferrioxamine E] | 29.79(1) | 25.2 | – | – | – | promoted | not | high radioactivity levels | 32.21(4) |
| triacetylfusarinine C [TAFC] | – | – | – | – | – | able to grow | able to grow | – | – |
